Laboratory results taken from ChEMBL document CHEMBL1157662, “Antimalarial and antileishmanial activities of histone deacetylase inhibitors with triazole-linked cap group” (Bioorg Med Chem, 2010).
Converted amounts (≈) assume the structure as drawn. The source made the active and inactive calls. The rule behind the calls is not given here.

Tests used:
Leishmania donovani [1] = experiment: Antileishmanial activity against Leishmania donovani promastigotes after 72 hrs by alamar blue assay; format: functional, organism-based
Plasmodium falciparum [2] = experiment: microbe, parasite or virus in culture; format: functional, organism-based, W2, Vero
Description: Antimalarial activity against chloroquine-resistant Plasmodium falciparum W2 infected in African green monkey (Cercopithecus aethiops) Vero cells assessed as parasite LDH activity after 72 hrs by Malstat reagent method

[3] = Selectivity index, ratio of IC50 for african green monkey (Cercopithecus aethiops) Vero cells to IC50 for chloroquine-sensitive Plasmodium falciparum D6
Vero = experiment: Cytotoxicity against african green monkey Vero cells after 1 to 2 days by neutral red assay; format: ADME, cell-based, Chlorocebus sabaeus
Leishmania donovani [4] = experiment: Ratio of suberoylanilide hydroxamic acid IC50 to compound IC50 for Leishmania donovani promastigotes; format: functional
Plasmodium falciparum [5] = experiment: Ratio of suberoylanilide hydroxamic acid IC50 to compound IC50 for chloroquine-resistant Plasmodium falciparum W2 infected in […]; format: functional
Plasmodium falciparum [6] = experiment: microbe, parasite or virus in culture; details: D6, Vero, 72 h
Description: (§1) Antimalarial activity against chloroquine-sensitive Plasmodium falciparum D6 infected in African green monkey (Cercopithecus aethiops) Vero cells assessed as parasite LDH activity after 72 hrs by Malstat reagent method

[7] = Selectivity index, ratio of IC50 for african green monkey (Cercopithecus aethiops) Vero cells to IC50 for chloroquine-resistant Plasmodium falciparum W2
Plasmodium falciparum [8] = experiment: Ratio of suberoylanilide hydroxamic acid IC50 to compound IC50 for chloroquine-sensitive Plasmodium falciparum D6 infected in […]; format: functional
Leishmania donovani [9] = experiment: Ratio of suberoylanilide hydroxamic acid IC50 to compound IC50 for Leishmania donovani promastigotes
Plasmodium falciparum [10] = details: vero
Description: as §1

Leishmania donovani [11] = system: Leishmania donovani
[12] = Leishmania donovani, 72 h, read-out: IC50
[13] = Plasmodium falciparum, W2, Vero, 72 h, read-out: IC50
[14] = Chlorocebus sabaeus, Vero, read-out: IC50

SMILES	IC90 (Leishmania donovani [1]; Leishmania donovani, 72 h) [µg/mL]	IC50 (Leishmania donovani [1]; [12]) [µg/mL]	IC50 (Plasmodium falciparum [2]; [13]) [µg/mL]	selectivity ratio [3]	IC50 (Vero; [14]) [µg/mL]	Ratio (Leishmania donovani [4])	Ratio IC50 (Plasmodium falciparum [5])	IC50 (Plasmodium falciparum [6]) [µg/mL]	selectivity ratio [7]	Ratio IC50 (Plasmodium falciparum [8])	IC50 ratio (Leishmania donovani [9])	IC50 (Plasmodium falciparum [10])	IC50 (Leishmania donovani [1])	IC50 (Plasmodium falciparum [2]; vero)	IC50 (Vero; vero)	IC90 (Leishmania donovani [11])
O=C(CCCCCn1cc(-c2ccc3ccccc3n2)nn1)NO	39 (≈ 120 µM)	9.5 (≈ 29.2 µM)	0.034 (≈ 0.104 µM)	72.7	2.4 (≈ 7.38 µM)	2	5	0.033 (≈ 0.101 µM)	70.6	5	2	–	–	–	–	–
COc1cccc(-c2cn(CCCCCC(=O)NO)nn2)c1	–	–	–	–	–	–	–	–	–	–	–	Not Active	Not Active	Not Active	Non-toxic	inactive
COc1ccc2cc(-c3cn(CCCCCCC(=O)NO)nn3)ccc2c1	> 40	18.5 (≈ 50.2 µM)	0.053 (≈ 0.144 µM)	55.8	2.65 (≈ 7.19 µM)	–	5	0.0475 (≈ 0.129 µM)	50	5	–	–	–	–	–	–
O=C(CCCCCn1cc(-c2ccc3cccnc3c2)nn1)NO	> 40	18.5 (≈ 56.9 µM)	0.033 (≈ 0.101 µM)	> 90.7	–	–	5	0.0525 (≈ 0.161 µM)	> 144	5	–	–	–	–	Non-toxic	–
COc1ccc2cc(-c3cn(CCCCCC(=O)NO)nn3)ccc2c1	> 40	18 (≈ 50.8 µM)	0.031 (≈ 0.0875 µM)	> 81.4	2.85 (≈ 8.04 µM)	–	5	0.035 (≈ 0.0988 µM)	> 91.9	5	–	–	–	–	–	–
